Laboratory results reported in patent publication US4283538A, “Novel triarylmethane compounds” (Polaroid Corporation, priority 1979, dated 1981).

Tests used:
Type in all cases: physicochemical
[1] = Decolorization of methanol solution added to aqueous 1 N KOH
[2] = Bleaching rate (T1/2) in pH=12 aqueous buffer, visible spectrometer; details: selected wavelength for optical density recording, pH=12 buffer
Description: Also, the "bleaching" rates for the compounds of Examples 21, 23 and 24 were determined at pH=12 in terms of T1/2. By T1/2 is meant the time measured for one-half of the colored compound to decolorize. In making these determinations, a cell containing about 3 ml of pH=12 buffer (aqueous) was placed in a visible spectrometer. A sample of each compound was dissolved in methanol, and a small amount (less than 0.1 cc) of each solution was injected into the buffer. The optical densities were then recorded at a selected wavelenth value to determine T1/2.

[3] = Persistence of colorlessness on acidification to pH 1 after decolorization in aqueous 1 N sodium hydroxide; details: methanol solution decolorized with aqueous 1 N NaOH, then aqueous HCl to pH 1
Text: As discussed above and also in the aforementioned application, the subject compounds have the ability to decolorize completely and irreversibly in base by undergoing an irreversible cleavage reaction within a predetermined time at a predetermined pH to give a new colorless compound which remains colorless at the pH's normally encountered during processing subsequent to "bleaching" so that the new compound may be retained in a photographic film unit, e.g., a photosensitive element without the possibility of color reappearing in time. In this regard, samples of the compounds prepared in Examples 24 and 26 above were dissolved in a small amount of methanol, and aqueous 1 N sodium hydroxide was added to each solution to decolorize the compound.

[4] = Transmission densities (R, G, B) of image-receiving components containing the dye before and after bleaching with aqueous 1 N KOH; details: for Transmission Density After Bleaching, B / Transmission Density Before Bleaching, B: blue; for Transmission Density After Bleaching, G / Transmission Density Before Bleaching, G: green; for Transmission Density After Bleaching, R / Transmission Density Before Bleaching, R: red
Text: Using appropriate solvents, samples of the dye compounds prepared in Examples 12, 13, 24 and 26 were incorporated into the image-receiving layer 3 of four image-receiving components comprising the structure set forth below by mixing the solution of each compound with a solution of the graft copolymer and coating this mixture on top of the timing layer to complete each of the image-receiving components.
A transparent 4 mil polyethylene terephthalate film base coated with, in succession:
1. as a polymeric acid layer, a mixture of about 9 parts of a partial butyl ester of polyethylene/maleic anhydride copolymer and 1 part of polyvinyl butyral coated at a coverage of about 2,500 mgs./ft.^2 ;
2. a timing layer containing a 14:1 ratio of a 60-30-4-6 tetrapolymer of butylacrylate, diacetone acrylamide, styrene and methacrylic acid and polyvinyl alcohol at a coverage of 500 mgs./ft.^2 ;
3. a graft copolymer of 4-vinylpyridine and vinylbenzyltrimethylammoniumchloride grafted on hydroxyethyl cellulose in a weight ratio of 2.2/1/2.2, respectively, coated at a coverage of 300 mgs./ft.^2 to provide an imagereceiving layer and containing the selected dye compound at a coverage of 22 mgs./ft.^2.
Each of the image-receiving components containing the respective dye compounds were placed on a piece of gelatin coated Mylar, and the transmission densities for red (R), green (G) and blue (B) were recorded on a transmission densitometer. Then several drops of aqueous 1 N KOH were added to each gelatin sheet, and the image-receiving components were lightly pressed against the gelatin sheets to "bleach" the dye compounds. […]

[5] = 15 to 60 seconds after aqueous 1 N KOH
[6] = dye 22 mgs./ft.^2 in image-receiving layer
[7] = dye 22 mgs./ft.^2 in image-receiving layer, densitometer set at 0.00 with two gelatin coated mylar
[8] = coating stored for over 3 months
[9] = coating stored for over 3 months, bleaching time about 3 minutes, aqueous 1 N KOH

| SMILES | Wavelength (λmax-nm) [2] [nm] | Transmission Density After Bleaching, B [4, 5] | Transmission Density Before Bleaching, B [4, 6] | Transmission Density After Bleaching, G [4, 5] | Transmission Density Before Bleaching, G [4, 6] | Transmission Density After Bleaching, R [4, 5] | Transmission Density Before Bleaching, R [4, 7] | also measured |
| --- | --- | --- | --- | --- | --- | --- | --- | --- |
| CC(=O)N(C)S(=O)(=O)c1ccccc1C(=C1C=C(C(O)(C(F)(F)F)C(F)(F)F)C(=O)c2ccccc21)c1cc2c3c(c1)CCCN3CCC2 [Example 9] |  |  |  |  |  |  |  | time to decolorize [1]: approximately 5 seconds |
| COC1=CC(=C(c2cc(OC)c(O)c(OC)c2)c2ccccc2S(=O)(=O)N(C)C(C)=O)C=C(OC)C1=O [Example 23] | 640 |  |  |  |  |  |  |  |
| CC1=CC(=C(c2cc(C)c(O)c(C)c2)c2ccccc2S(=O)(=O)N(C)C(=O)OCCS(C)(=O)=O)C=C(C)C1=O [Example 24] | 590 | .00 | .40 | .00 | .00 | .01 | .00 | color after decolorization and acidification to pH 1 [3]: remained colorless even at pH 1 |
| CN(C(=O)OCCS(C)(=O)=O)S(=O)(=O)c1ccccc1C(=C1C=C(C(O)(C(F)(F)F)C(F)(F)F)C(=O)c2ccccc21)c1cc2c3c(c1)CCCN3CCC2 [Example 26] |  |  |  |  |  |  |  | color after decolorization and acidification to pH 1 [3]: remained colorless even at pH 1; Transmission Density Before Bleaching, B [4, 8]: .05; Transmission Density After Bleaching, B [4, 9]: .02; Transmission Density Before Bleaching, G [4, 8]: .06; Transmission Density After Bleaching, G [4, 9]: .00; Transmission Density Before Bleaching, R [4, 8]: .19; Transmission Density After Bleaching, R [4, 9]: .02; time to decolorize (in words) [1]: substantially instantaneously |
| COC1=CC(=C(c2cc3c4c(c2)CCCN4CCC3)c2ccccc2S(=O)(=O)N(C)C(=O)OCCS(C)(=O)=O)C=C(OC)C1=O [Example 13] |  | .00 | .09 | .01 | .32 | .01 | .21 |  |
| COC1=CC(=C(c2cc(OC)c(O)c(OC)c2)c2ccccc2S(=O)(=O)N(C)C(=O)OCCS(C)(=O)=O)C=C(OC)C1=O [Example 21] | 640 |  |  |  |  |  |  |  |
| COC1=CC(=C(c2ccc(N3CCOCC3)cc2)c2ccccc2S(=O)(=O)N(C)C(=O)OCCS(C)(=O)=O)C=C(OC)C1=O [Example 12] |  | .00 | .45 | .01 | .31 | .02 | .00 |  |
